Test results reported in publication PMC11362066, “Fecal elimination of fluralaner in different carnivore species after oral administration” (Frontiers in Veterinary Science, 2024).
Converted amounts (≈) assume the structure as drawn. Read-outs that look alike come from different tables or passages of the source.

Legend:
[1] = design: method as in PMID 33407820; details: wombats, pour on, doses of 25 or 85 mg.kg^−1; cited from earlier work
[2] = Fecal elimination of fluralaner after oral administration, European otter; type: in vivo, Lutra lutra; details: European otter n = 1
Description: (§1) Based on the species present at the Paris Zoo, the animals selected to be part of the study are described in Table 1.
(§2) Each individual received 1–3 tablets of fluralaner (Bravecto®, formulations from 112.5 mg to 1,400 mg per tablet), based on the dose determined (Table 2) and the actual BW of the animal on day 0 (D0). Tablets were administered with the food. Tablets were not divided, according to the summary of product characteristics and the dose administered was adjusted as closely as possible to the theoretical dose calculated. The recommended bracket doses (25–56 mg/kg in a 20-kg dog) were used as a guideline (adjusted to the body weight of the animals) to ensure that the actual dose administered would remain in the acceptable margin. For instance, for the Iberian Wolf: using the dose range 25–56 mg/kg gave a D-reference of [500–1,120] mg, thus c = D-ref/P-ref = [0.76–1.69], i.e., D-target = [763–1,698] mg, resulting in a reference range of [21.9–48.6] mg.kg^−1. The actual doses administered were between 28 and 30 mg.kg^−1. This was checked for all species.
(§3) Feces were sampled on the floor, in priority on concrete ground in indoor facilities when animals were isolated. Fecal sampling was performed by keepers with gloves, transferred to sterile vials, then saved at −80°C until transfer to the lab.
(§4) For feces analysis, well-homogenized samples were weighed and dried at 40°C overnight to eliminate water. 200 mg of the dried sample were weighed, 80 μL of IS solution (0.5 μg/mL solution), 0.52 mL of water, 200 mg QuEChERS salts and 1 mL of acetonitrile were added in a 5 mL plastic centrifuge tube. The sample was then mixed well by vortexing for 2 min and then centrifuged at 12,000 rpm for 5 min.
(§5) The upper clear layer solutions were transferred to auto-sampler vials and placed in the auto-sampler at 10°C for LC–MS/MS analysis. All results are reported in μg.kg^−1 dry weight (dw).
(§6) All pharmacokinetic data were computed using a non-linear model and “PK solver” in Microsoft-excel®. This approach has been used by Kilp et al. ([21]) and considered satisfactory by comparison with a standard PK software such as WinNonLIn®.
(§7) Only Lion and Mountain lion data (3 individuals+negative control for each species) are presented in Figure 2 as mean ± SD of the fecal concentration of fluralaner vs. time post administration. When data were LOD < Data<LOQ, an average value of 4 has been used (for graphical and PK analysis purposes). When concentrations were < LOD, ½ LOD value was used for the same purposes.

[3] = design: method as in PMID 33733534; details: cited from earlier work
[4] = cited from earlier work
[5] = Fecal elimination of fluralaner after oral administration, Mountain lion; type: in vivo, Puma concolor
Description: as §1, §2, §3, §4, §5, §6, §7

[6] = cited from earlier work; remark: listed apart in the source
[7] = Fecal elimination of fluralaner after oral administration, Suricate; type: in vivo, Suricatta suricatta; details: feces, Suricate n = 1
Description: as §1, §2, §3, §4, §5, §6, §7

dog and cat fleas = details: cited from earlier work
honey bees = system: honey bees; design: method as in ref 10 = [10]; 10. CVMP ( 2017 ) CVMP assessment report for EXZOLT (EM EA/V/C/004344/0000), EMA/377159/2017, Available at: https://www.ema.europa.eu/en/documents/assessment-report/exzolt-epar-public-assessment-repor; details: cited from earlier work
[8] = Fecal elimination of fluralaner after oral administration, Iberian wolf; type: in vivo, Canis lupus; details: Iberian wolf n = 1
Description: as §1, §2, §3, §4, §5, §6, §7

[9] = Fecal elimination of fluralaner after oral administration, Jaguar; type: in vivo, Panthera onca; details: Jaguar n = 1
Description: as §1, §2, §3, §4, §5, §6, §7

[10] = Fecal elimination of fluralaner after oral administration, Fossa; type: in vivo, Cryptoprocta ferox; details: Fossa n = 1
Description: as §1, §2, §3, §4, §5, §6, §7

[11] = cited from earlier work; remark: listed apart in the source
[12] = Fecal elimination of fluralaner after oral administration, South American coati; type: in vivo, Nasua nasua; details: South American coati n = 1
Description: as §1, §2, §3, §4, §5, §6, §7

[13] = design: method as in ref 27 = [27]; 27. VSDB Veterinary substances DataBase consulted on June 1st, ( 2022 ) Available at: http://sitem.herts.ac.uk/aeru/vsdb/index.htm; details: VSDB; cited from earlier work
Daphnia magna = system: Daphnia magna; design: method as in ref 10 = [10]; 10. CVMP ( 2017 ) CVMP assessment report for EXZOLT (EM EA/V/C/004344/0000), EMA/377159/2017, Available at: https://www.ema.europa.eu/en/documents/assessment-report/exzolt-epar-public-assessment-repor; details: cited from earlier work
[14] = Fecal elimination of fluralaner after oral administration, Lion; type: in vivo, Panthera leo
Description: as §1, §2, §3, §4, §5, §6, §7

[15] = design: method as in PMID 33480547; details: black bears, orally at 25 mg.kg^−1; cited from earlier work
[16] = design: method as in PMID 36265636; details: treated dogs; cited from earlier work
[17] = design: method as in PMID 28103942; details: 221 dogs treated; cited from earlier work
[18] = Oral Bravecto in zoo carnivores, all treated animals (tolerance, fecal residues); type: in vivo
Description: as §1, §2, §3

sarcoptic mange = system: sarcoptic mange; design: method as in PMID 30895701; details: Raccoon dogs, one oral dose; cited from earlier work
[19] = fecal elimination, oral 36.8 mg.kg^−1
[20] = fecal elimination, Mountain lion n = 3, mean ± SD, oral 20.8–25.0 mg.kg^−1
[21] = feces, Mountain lion n = 3, mean ± SD, oral 20.8–25.0 mg.kg^−1
[22] = fecal elimination, oral 28.6 mg.kg^−1
[23] = fecal elimination, oral 34.5 mg.kg^−1
[24] = fecal elimination, oral 26.3 mg.kg^−1
[25] = fecal elimination, oral 52.1 mg.kg^−1
[26] = fecal elimination, Lion n = 3, mean ± SD, oral 16.0–24.1 mg.kg^−1
[27] = feces, Lion n = 3, mean ± SD, oral 16.0–24.1 mg.kg^−1

Cc1cc(C2=NOC(c3cc(Cl)cc(Cl)c3)(C(F)(F)F)C2)ccc1C(=O)NCC(=O)NCC(F)(F)F (stereo not shown) [fluralaner, Fluralaner]
Safety [1]: safe
MRT [2, 19]: 16 days
t1/2 [2, 19]: 2 days
Cmax ([2]; feces, Bravecto tablet oral with food, 36.8 mg.kg^−1, rough estimate): 2,137 μg.kg-^1 dry weight
AUC (D0-D112) ([2]; feces, oral 36.8 mg.kg^−1): 41,301 d* μg.kg-^1 dry weight
AUC(0-infini) ([2]; feces, oral 36.8 mg.kg^−1): 41,354 d* μg.kg-^1 dry weight
Last detection day ([2]; feces, oral 36.8 mg.kg^−1): 42 days
tmax ([2]; feces, oral 36.8 mg.kg^−1, rough estimate): 7 days
Protein-bound [3]: > 99%
Effect of food on bioavailability ([4]; dogs fed prior to the administration of the drug): doubled
Half-life ([4]; dogs, oral administration): 11 to 13 days
Bioavailability, topical administration ([4]; dogs, topical): 22–25%
MRT [5, 20]: 3 ± 1 days
t1/2 [5, 20]: 6 ± 1 days
Cmax ([5]; feces, Mountain lion n = 3, mean ± SD, Bravecto tablets oral with food, 20.8–25.0 mg.kg^−1, rough estimate): 12,909 ± 4,954 μg.kg-^1 dry weight
AUC (D0-D112) [5, 21]: 54,158±19,755 d* μg.kg-^1 dry weight
AUC(0-infini) [5, 21]: 54,786±19,755 d* μg.kg-^1 dry weight
Last detection day ([5]; feces, Mountain lion n = 3, oral 20.8–25.0 mg.kg^−1): 49 days
tmax ([5]; feces, Mountain lion n = 3, oral 20.8–25.0 mg.kg^−1, rough estimate): 1 days
DT50 in soil ([6]; CVMP assessment report): ~1,000 days
DT50 in soil ([6]; VSDB): 60 days
DT50 in aquatic environments ([6]; aerobic waters): 3 to 4 days
DT50 in soil ([6]; sandy loams): up to 989 days
DT50 in sediments ([6]; sediments): 112 to 195 days
Cmax ([7]; Bravecto tablet oral with food, 125 mg.kg^−1, rough estimate, residues in control animal in same cage): 15 μg.kg-^1 dry weight
AUC (D0-D112) ([7]; oral 125 mg.kg^−1): 105 d* μg.kg-^1 dry weight
Last detection day ([7]; oral 125 mg.kg^−1): 14 days
tmax ([7]; oral 125 mg.kg^−1, rough estimate): 14 days
Efficacy period (dog and cat fleas; dogs and cats): 12 week
Duration of insecticidal effect on dog and cat fleas (dog and cat fleas; reference not given): 12 weeks
Toxicity classification (honey bees): highly toxic
MRT [8, 22]: 6 days
t1/2 [8, 22]: 5 days
Cmax ([8]; feces, Bravecto tablet oral with food, 28.6 mg.kg^−1, rough estimate): 620 μg.kg-^1 dry weight
AUC (D0-D112) ([8]; feces, oral 28.6 mg.kg^−1): 7,218 d* μg.kg-^1 dry weight
AUC(0-infini) ([8]; feces, oral 28.6 mg.kg^−1): 7,260 d* μg.kg-^1 dry weight
Last detection day ([8]; feces, oral 28.6 mg.kg^−1): 31 days
tmax ([8]; feces, oral 28.6 mg.kg^−1, rough estimate): 1 days
MRT [9, 23]: 15 days
t1/2 [9, 23]: 8 days
Cmax ([9]; feces, Bravecto tablets oral with food, 34.5 mg.kg^−1, rough estimate): 16,089 μg.kg-^1 dry weight
AUC (D0-D112) ([9]; feces, oral 34.5 mg.kg^−1): 145,337 d* μg.kg-^1 dry weight
AUC(0-infini) ([9]; feces, oral 34.5 mg.kg^−1): 145,752 d* μg.kg-^1 dry weight
Last detection day ([9]; feces, oral 34.5 mg.kg^−1): 72 days
tmax ([9]; feces, oral 34.5 mg.kg^−1, rough estimate): 7 days
MRT [10, 24]: 1 days
t1/2 [10, 24]: 3 days
Cmax ([10]; feces, Bravecto tablet oral with food, 26.3 mg.kg^−1, rough estimate, residues in control animal in same cage): 370,295 μg.kg-^1 dry weight
AUC (D0-D112) ([10]; feces, oral 26.3 mg.kg^−1): 1,373,277 d* μg.kg-^1 dry weight
AUC(0-infini) ([10]; feces, oral 26.3 mg.kg^−1): 1,373,579 d* μg.kg-^1 dry weight
Last detection day ([10]; feces, oral 26.3 mg.kg^−1): 35 days
tmax ([10]; feces, oral 26.3 mg.kg^−1, rough estimate): 1 days
Administered dose eliminated unchanged in the feces [11]: 90%
Administered dose eliminated unchanged in the feces ([11]; rats, dogs and chickens): up to 90%
Eliminated via the feces as the unchanged compound ([11]; reference not given): > 90%
MRT [12, 25]: 38 days
t1/2 [12, 25]: 26 days
Cmax ([12]; feces, Bravecto tablet oral with food, 52.1 mg.kg^−1, rough estimate): 453 μg.kg-^1 dry weight
AUC (D0-D112) ([12]; feces, oral 52.1 mg.kg^−1): 7,688 d* μg.kg-^1 dry weight
AUC(0-infini) ([12]; feces, oral 52.1 mg.kg^−1): 8,998 d* μg.kg-^1 dry weight
Last detection day ([12]; feces, oral 52.1 mg.kg^−1): 82 days
tmax ([12]; feces, oral 52.1 mg.kg^−1, rough estimate): 1 days
Hydrolysis [13]: not degraded by hydrolysis
Lipophilicity [13]: lipophilic
LC50 (Daphnia magna; Daphnia magna, assessment report for EXZOLT): 0.047 mg/L (≈ 0.0845 µM)
No Observed Effect Concentration (NOEC) for reproduction (Daphnia magna; Daphnia magna): 0.047 µg/L
Toxicity classification (Daphnia magna; aquatic invertebrates (Daphnia magna)): highly toxic
MRT [14, 26]: 8 ± 1 days
t1/2 [14, 26]: 12 ± 1 days
Cmax ([14]; feces, Lion n = 3, mean ± SD, Bravecto tablets oral with food, 16.0–24.1 mg.kg^−1, rough estimate): 44,880 ± 28,616 μg.kg-^1 dry weight
AUC (D0-D112) [14, 27]: 232,796±95,614 d* μg.kg-^1 dry weight
AUC(0-infini) [14, 27]: 234,203±95,339 d* μg.kg-^1 dry weight
Last detection day ([14]; feces, Lion n = 3, oral 16.0–24.1 mg.kg^−1): 89 days
tmax ([14]; feces, Lion n = 3, oral 16.0–24.1 mg.kg^−1, rough estimate): 1 days
Half-life [15]: 4.9 days
Measured values in urine samples [16]: 1 µg/L
Dogs displaying alopecia [17]: 4%
Dogs displaying vomiting [17]: 6%
Adverse reaction during the course of the study ([18]; all animals treated, oral Bravecto tablets, allometrically scaled dose): No adverse reaction was noted
Concentrations detected in fecal samples throughout the study ([18]; feces, highest value): up to 44,000 μg/kg
Duration of elimination in feces as an active substance ([18]; our study): up to 3 months
Time to cure from sarcoptic mange (sarcoptic mange): 7 days
